Values joined by “and” are separate entries in the source; they are usually repeats but may differ in a detail not shown here. Identical values can stand only once.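 A five-concentration, 48-hour dose response in 96-well plates underlies each endpoint, interpolated linearly between surrounding concentrations. The concentration for 50% growth inhibition is given as GI50. TGI: total growth inhibition.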
How the values were obtained:
Assay in all cases: inhibition of tumour cell growth, NCI panel, 48 h
HCT-15 colon = tested on: HCT-15 colon
HOP-92 NSCLC = tested on: HOP-92 NSCLC
HT29 colon = tested on: HT29 colon
K-562 leukemia = tested on: K-562 leukemia
NCI-H226 lung = tested on: NCI-H226 lung
OVCAR-3 ovarian = tested on: OVCAR-3 ovarian
SN12C renal = tested on: SN12C renal
786-0 renal = tested on: 786-0 renal
KM12 colon = tested on: KM12 colon
MDA-MB-231 breast = tested on: MDA-MB-231 breast

| Structure (SMILES) | TGI (HCT-15 colon) | TGI (HOP-92 NSCLC) | TGI (HT29 colon) | TGI (K-562 leukemia) | TGI (NCI-H226 lung) | TGI (OVCAR-3 ovarian) | TGI (SN12C renal) | TGI (786-0 renal) | TGI (KM12 colon) | TGI (MDA-MB-231 breast) | GI50 (HOP-92 NSCLC) | GI50 (NCI-H226 lung) |
| --- | --- | --- | --- | --- | --- | --- | --- | --- | --- | --- | --- | --- |
| CC[n+]1c(/C=C/c2ccc(N(CCCl)CCCl)cc2)ccc2cc(I)ccc21 | 28.1 µM | 2.13 µM | 8.19 µM | 1.6 µM | 5.63 µM | 1.12 µM | 2.71 µM |  |  |  |  |  |
| C#CC(O)/C=C/C(O)CCCC(O)CC#CC(O)C#CCCCCC(O)/C=C/CCCC(O)/C=C/CCCCCCCCCCCCCC(O)C(O)C#CC(=O)O (stereo not given) | > 25 µM | > 25 µM | > 25 µM | > 25 µM | > 25 µM |  | > 25 µM | > 25 µM | > 25 µM | > 25 µM |  |  |
| CCN(CC)CCN1C(=O)C(=O)N(c2cccc3ccccc23)C1=O | > 10 µM |  | > 10 µM | > 10 µM | > 10 µM | > 10 µM | > 10 µM |  | > 10 µM | > 10 µM |  |  |
| OC12CCC3(O)c4ccccc4C3C1c1ccccc12 (stereo not given) | > 100 µM |  | > 100 µM | > 100 µM | > 100 µM |  | > 100 µM | > 100 µM | > 100 µM |  |  |  |
| COc1cc(S(=O)(=O)Nc2ccc(-c3csc(N4C(=O)C(Cl)C4c4cccs4)n3)cc2)ccc1Cl (stereo not given) | > 100 µM | 45.5 µM | > 100 µM | > 100 µM | > 100 µM | > 100 µM | > 100 µM | 68.3 µM | > 100 µM |  |  |  |
| C=C(C)C(=O)OC1C[C@H](COC(C)=O)C2CC=C(CO)C2C2OC(=O)C(=C)[C@H]12 (stereo not given in full) | > 100 µM |  | > 100 µM | 54.4 µM | > 100 µM | > 100 µM |  | 97.1 µM | > 100 µM | > 100 µM |  |  |
| C[C@H]1O[C@@H](C(C)(C)C)OC(=O)[C@@H]1C(OC(=O)c1ccccc1)c1cccc2ccccc12 (stereo not given in full) | > 100 µM |  | > 100 µM | > 100 µM | > 100 µM | > 100 µM | > 100 µM | > 100 µM | > 100 µM | > 100 µM |  |  |
| CN1NC(c2ccccc2)=C(C#N)C(=O)CC1c1ccc(Br)cc1 (stereo not given) | > 100 µM | > 100 µM | 75.6 µM |  | 4.24 µM |  | > 100 µM |  | > 100 µM |  |  |  |
| O=C(O)c1ccc(Nc2nc3nn(Cc4ccccc4)cc3c(=O)s2)cc1 | > 100 µM | > 100 µM |  | > 100 µM |  | > 100 µM | > 100 µM | > 100 µM | > 100 µM |  |  |  |
| Cc1ccc(SCC(OCn2cnc3c(Cl)nc(N)nc32)[C@H](C)F)cc1 (stereo not given in full) | > 100 µM | > 100 µM | > 100 µM |  | > 100 µM | > 100 µM | > 100 µM | > 100 µM | > 100 µM | > 100 µM |  |  |
| COCOc1cc(OC)ccc1C/C(=N/O)C(=O)OC | > 100 µM |  | > 100 µM | > 100 µM | > 100 µM | > 100 µM | > 100 µM | > 100 µM | > 100 µM | > 100 µM |  |  |
| O/N=C\C(=Nc1ccc(Cc2ccc(N=C(/C=N\O)NO)cc2)cc1)NO | > 100 µM | > 100 µM | > 100 µM | > 100 µM | > 100 µM | > 100 µM | > 100 µM | > 100 µM | > 100 µM |  |  |  |
| CCOC(=O)/C=C(/C(=O)OCC)n1ccc(=O)n(Cc2cnnn2CCCCOC(C)=O)c1=O |  | 45.7 µM | > 100 µM | > 100 µM | > 100 µM | > 100 µM | > 100 µM | > 100 µM | > 100 µM | > 100 µM |  |  |
| CCOC(=O)C1(C(=O)OCC)C=C(c2ccccc2)N(C2OC(COC(C)=O)C(OC(C)=O)C(OC(C)=O)C2OC(C)=O)C1=S (stereo not given) | > 100 µM | > 100 µM | > 100 µM |  | > 100 µM | > 100 µM | > 100 µM | > 100 µM | > 100 µM | > 100 µM |  |  |
| C/C(O)=C(\C=NC(=S)c1ccncc1)C(=O)Nc1ccccc1C | > 100 µM | > 100 µM | > 100 µM |  | > 100 µM | > 100 µM | > 100 µM | > 100 µM | > 100 µM | > 100 µM |  |  |
| COc1ccc(CCN2C(=O)CC34C=CC(CC3C2=O)O4)cc1OC (stereo not given) | > 100 µM | > 100 µM | > 100 µM | > 100 µM |  | > 100 µM | > 100 µM | > 100 µM | > 100 µM | > 100 µM |  |  |
| C/C(O[Si](C(C)C)(C(C)C)C(C)C)=C(\C)C(=O)N(C)c1ccccc1Cl | > 100 µM | > 100 µM | > 100 µM |  | > 100 µM | > 100 µM | > 100 µM | > 100 µM | > 100 µM | > 100 µM |  |  |
| O=C(c1ccco1)N(C(=S)N1CCN(c2ccccn2)CC1)c1ccccc1 | > 100 µM | > 100 µM | > 100 µM | > 100 µM | > 100 µM | > 100 µM | > 100 µM | > 100 µM | > 100 µM |  |  |  |
| Cc1ccc(S(=O)(=O)NC(=O)NC(CCC(N)=O)C(=O)O)cc1 (stereo not given) | > 100 µM | > 100 µM | > 100 µM | > 100 µM |  |  | > 100 µM | > 100 µM | > 100 µM | > 100 µM |  |  |
| Cc1nc(Nc2ccc(Cl)c(Cl)c2)sc1C(=O)/C=C/c1ccc2c(c1)OCO2 |  |  | > 100 µM | 89.9 µM | 62 µM | 30 µM |  | 38.4 µM | 50 µM |  |  |  |
| CC(=O)NC1(C)C(C)C2CC1C(C)C2(C)C (stereo not given) |  | > 100 µM | > 100 µM | > 100 µM | > 100 µM | > 100 µM | > 100 µM | > 100 µM | > 100 µM | > 100 µM |  |  |
| Cc1cc(NS(=O)(=O)c2ccc(Nc3c4ccccc4nc4c(C(=O)NCCO)cccc34)cc2)no1 | > 100 µM | > 100 µM | 78.8 µM | > 100 µM |  | > 100 µM | > 100 µM | > 100 µM | 62.7 µM | > 100 µM |  |  |
| COC(=O)CC(C(C(C)=O)C(=O)OCc1ccccc1)N1C(=O)OC(c2ccccc2)C1c1ccccc1 (stereo not given) | > 100 µM | > 100 µM | > 100 µM | > 100 µM | 80.7 µM and > 100 µM | 75.3 µM and > 100 µM | > 100 µM | > 100 µM | > 100 µM |  | 84.5 µM and 39.8 µM | 12.2 µM and 77.5 µM |
| COc1ccc(/C(Cl)=C(\C=O)c2ccc(Cl)cc2)cc1OC | > 100 µM |  | 20.8 µM | 71.3 µM | 36.6 µM | 31.7 µM | 16.6 µM |  |  |  |  |  |
